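Dose response: 5 concentrations. Exposure: 48 h. Format: 96-well plates. Endpoint: linear interpolation; highest concentration if not reached. GI50: concentration for 50% inhibition of growth. TGI: total growth inhibition.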 Bounds are passed on as bounds.

Common to all, as to experiment: NCI-60 cell line screen, 48 h
Test [1] deals with MDA-MB-435.
Test [2] relates to HT29 colon.
Test [3] deals with PC-3 prostate.
Test [4] concerns CCRF-CEM leukemia.
The test system of test [5] is HOP-62 NSCLC.
The test system of test [6] is HCT-116 colon.
For test [7], the system named is DU-145 prostate.
In test [8] the test system is HL-60(TB) leukemia.
Test [9] has as its system LOX IMVI melanoma.
Test [10] relates to SNB-19 CNS.

On to `N#Cc1c(NC(=O)CN2CCOCC2)sc2c1CCCC2`, for which the GI50 in test [1], in test [2], in test [3], in [4], in test [5] and in test [6] was over 25 µM each time. The GI50 in [7], in test [8], in test [9] and in test [10] was over 25 µM throughout. Besides, the TGI in test [1], in [2], in test [3], in test [4], in test [5] and in [6] was over 25 µM in each case. Moreover, the TGI in [7], in test [8], in test [9] and in test [10] was over 25 µM each time.
For `C=C(C)[C@@H]1CCC2=C[C@@H](OC2=O)[C@@H](C(=C)C)C(=O)/C=C(/C)C(=O)C1`, the GI50 in test [1] was 38.8 µM; in [2], 41.8 µM; in [3], 8.79 µM; in [4], 4.78 µM; in test [5], 36.2 µM; in test [6] it was 16.1 µM. The GI50 in [7] was 34.9 µM; in [9] it was over 100 µM; in test [10] it was 33.8 µM. Moreover, the TGI in [1] was over 100 µM; in test [2], over 100 µM; in test [3], 39.3 µM; in test [4], 28.8 µM; in test [5], over 100 µM; in [6], 42 µM. Further, the TGI in test [7], in [9] and in test [10] was over 100 µM throughout.
In the case of `Cc1ccccc1N=Nc1c(O)[nH]c2ccccc12`, the TGI in test [1], in [2], in test [3], in test [4], in [5] and in test [6] was over 100 µM each time. Further, the TGI in [7], in [8], in test [9] and in test [10] was over 100 µM throughout.
Regarding `N#Cc1c(-c2ccccc2)cc(-c2ccccc2)n(CCCCC(=O)NO)c1=O`, the GI50 is 2.4 µM in [1]; 3.51 µM in test [2]; 2.72 µM in test [3]; 1.68 µM in [4]; 2.24 µM in test [5]; 2.37 µM in [6]. Also, the GI50 was 2.96 µM in [7], 2.39 µM in test [8], 1.71 µM in [9] and 3.53 µM in test [10]. Also, the TGI is 11.5 µM in test [1]; 13.4 µM in [2]; 15.9 µM in test [3]; 6.45 µM in test [4]; 7.35 µM in [5]; 10.1 µM in test [6]. Also, the TGI in [7] was 11.3 µM; in [8], 6.84 µM; in [9], 3.22 µM; in [10], 15.6 µM.
Consider `CCOC(=O)C1=C(C)NC(=O)NC1c1coc2cc(C)cc(C)c2c1=O` (stereo not given), for which the TGI in [1] is 45.4 µM; in [2] it was over 100 µM; in test [3] it was over 100 µM; in test [4], over 100 µM; in [5], over 100 µM; in [6] it was over 100 µM. For the same compound, the TGI in test [7], in test [8], in [9] and in test [10] was over 100 µM throughout.
As for `O=C(CCCc1ccccn1)c1ccccc1`, the TGI in test [1], in test [2], in [3], in [4], in [5] and in [6] was over 100 µM each time. The TGI in test [7], in test [8], in test [9] and in [10] was over 100 µM in each case.
As to `COc1ccc(-c2cc(/C=C3\C(=O)Nc4ccc(OC)cc43)[nH]n2)cc1`, the GI50 in test [1] was 0.317 µM; in test [2] it was 1.58 µM; in test [3], over 100 µM; in test [4] it was over 100 µM; in [5], 10.6 µM; in test [6] it was 9.08 µM. For the same compound, the GI50 was over 100 µM in [7], 0.821 µM in test [8], 14 µM in [9] and 77.2 µM in [10]. Further, the TGI was 26.1 µM in test [1]; over 100 µM in test [2]; over 100 µM in [3]; over 100 µM in test [4]; over 100 µM in [5]; over 100 µM in test [6]. The TGI in test [7], in test [8], in test [9] and in [10] was over 100 µM each time.
Turning to `Clc1ccc(-c2nn3ncccc3c2-c2ccnc(Nc3ccccc3)n2)cc1`, the GI50 in test [1] is 10.1 µM; in test [2] it was 6.51 µM; in test [3] it was 7.3 µM; in [4], 10.6 µM; in test [5], over 21.4 µM; in [6] it was 7.02 µM. In addition, the GI50 in [7] is 11 µM; in test [8], 11.3 µM; in [9], 9.23 µM; in test [10] it was over 14.4 µM. In addition, the TGI in test [1], in [2], in test [3], in test [4], in test [5] and in [6] was over 25 µM in each case. Moreover, the TGI in [7], in test [8], in test [9] and in [10] was over 25 µM in each case.
As to `CN1c2ccccc2S(=O)(=O)n2c(COc3ccc(Cl)cc3)nnc21`, the TGI is over 100 µM in [1]; over 100 µM in test [2]; over 100 µM in test [3]; over 100 µM in test [4]; 47.8 µM in [5]; over 100 µM in test [6]. Moreover, the TGI in test [7], in [8], in test [9] and in test [10] was over 100 µM in each case.
Regarding `CCc1c(Cl)nc(Cl)nc1Cl`, the TGI was determined as 12.1 µM in test [1]; 1.3 µM in test [2]; 4.06 µM in test [3]; 5.81 µM in test [5]; 0.44 µM in test [6]; 6.35 µM in test [7]. For the same compound, the TGI came to 0.674 µM in [8], 1.54 µM in test [9] and 8.79 µM in test [10].
As for `COc1cccc(C2NC(=S)NC(C)=C2C(=O)Nc2ccc(F)c(Cl)c2)c1` (stereo not given), the GI50 in [1] is 27.3 µM; in test [3], 23.2 µM; in test [5], over 50 µM; in test [6], 23.1 µM; in test [7], 36.3 µM; in test [8] it was 17.4 µM. For the same compound, the GI50 in test [9] was 17.6 µM; in [10], over 50 µM. Also, the TGI in [1], in [3], in [5], in test [6], in test [7] and in test [8] was over 50 µM throughout. Moreover, the TGI in [9] and in [10] was over 50 µM in each case.
Regarding `O=C(O)CCCCn1cnc2c(=S)nc[nH]c21`, the TGI in test [1], in test [2], in [3], in test [4], in [5] and in [6] was over 100 µM throughout. Also, the TGI in test [7], in test [9] and in test [10] was over 100 µM throughout.
Consider `Cc1cc(-c2nc(-c3ccc(OC(F)(F)F)cc3)no2)nn1Cc1ccnc(N2CCN(C3CC3)CC2)c1`, for which the GI50 was 2.34 µM in test [1]; 5.26 µM in test [2]; 3.38 µM in [3]; 7.09 µM in [4]; under 0.01 µM in [6]; over 59.4 µM in test [7]. Also, the results for the GI50 in [8], in [9] and in test [10] were 2.93 µM, 0.272 µM and over 23.1 µM, respectively. Besides, the TGI in test [1] is over 59 µM; in test [2], over 56.9 µM; in [3], over 100 µM; in test [4] it was over 100 µM; in test [6], over 100 µM; in [7], over 100 µM. Further, the TGI in test [8] was over 69.2 µM; in [9], over 45.6 µM; in [10], over 100 µM.
For the compound `CN(C)CCN=Cc1c2ccccc2c(=O)n2c1oc1ccccc12`, the GI50 in [1] is 10.1 µM; in [2], 4.56 µM; in test [3], 11.5 µM; in test [4], 4.36 µM; in test [5], 12.1 µM; in [7], 2.97 µM. Moreover, the figures for the GI50 in test [8], in [9] and in test [10] were 10.9 µM, 4.18 µM and 7.45 µM, respectively. Further, the TGI in test [1] is 21.7 µM; in test [2], 19.4 µM; in test [3], 29.9 µM; in test [4], 62.8 µM; in test [5], 26.7 µM; in [7], 14.5 µM. The TGI amounted to 55 µM in test [8], 16.1 µM in [9] and 21.4 µM in [10].
As to `COc1ccc(/C=C/c2cc(N3CCOCC3)c3cc(F)c(F)cc3n2)cc1OC`, the GI50 is 1.54 µM in test [1]; 0.846 µM in test [3]; 0.31 µM in test [4]; 0.667 µM in [5]; 0.414 µM in test [6]; 1.58 µM in [7]. The GI50 in test [8] was 0.435 µM; in [9] it was 0.516 µM; in [10] it was 1.11 µM. Also, the TGI in test [1] worked out at 12.8 µM; in test [3] it was 14.4 µM; in test [4], 10.2 µM; in test [5] it was 7.25 µM; in [6], 10 µM; in test [7], 11.8 µM. In addition, the TGI in test [8] is 5.14 µM; in [9], 2.27 µM; in [10], 12.4 µM.
In the case of `CC(=O)OCC1OC(OC2=C(CC=C(Cl)Cl)C(=O)c3ccccc3C2=O)C(OC(C)=O)C(OC(C)=O)C1OC(C)=O` (stereo not given), the GI50 is 4.38 µM in test [1]; 16 µM in test [2]; 2.66 µM in [3]; 0.894 µM in test [4]; 18.5 µM in test [5]; 1.74 µM in test [6]. Also, the GI50 in test [7] was 11.8 µM; in [9] it was 1.71 µM; in [10], 11.8 µM. Moreover, the TGI in test [1] is 16 µM; in test [2], 60.5 µM; in test [3], 11.5 µM; in [4] it was over 100 µM; in test [5] it was 34.4 µM; in test [6] it was 3.92 µM. For the same compound, the TGI in test [7] turned out to be 24.1 µM; in [9], 3.56 µM; in test [10], 24.8 µM.
On to `CC1OC(OC2CC(O)C3(CO)C4C(O)CC5(C)C(C6=CC(=O)OC6)CCC5(O)C4CCC3(O)C2)C(O)C(O)C1O` (stereo not given), for which the GI50 in test [1] was 0.0222 µM; in [2] it was under 0.0147 µM; in [3], under 0.0144 µM; in test [5], under 0.0112 µM; in test [6], under 0.0139 µM; in [7], under 0.012 µM. The GI50 is under 0.0196 µM in test [9] and 0.0296 µM in [10]. In addition, the TGI was 0.0785 µM in [1]; 0.102 µM in test [2]; 0.0437 µM in [3]; under 0.0146 µM in test [5]; 0.0209 µM in test [6]; under 0.0152 µM in [7]. For the same compound, the TGI in test [8] amounted to 0.235 µM; in test [9], 0.0457 µM; in [10], 0.177 µM.
With `CC(=O)OC1CCC2(C)C(=CCC3C2CCC2(C)C(C(C)C(=O)O)CCC32)C1` (stereo not given), the TGI in test [1], in test [2], in [3], in test [4], in test [5] and in [6] was over 100 µM each time. Further, the TGI in test [7], in [9] and in test [10] was over 100 µM each time.

The values above are taken from PubChem BioAssay (NCI).
